Assay results: US20230000996A1, “RAPAFUCIN DERIVATIVE COMPOUNDS AND METHODS OF USE THEREOF” (The Johns Hopkins University, priority 2019, published 2023)
Numbered stars: 1 amine (or outer) side, 2 acyl side, 3 side chain; on linkers, the order of the positions; unused ones are H or OH. Square brackets hold non-standard residues; d marks the D form. Side chains are listed from the residue outwards. Peptide text beside a SMILES is read from it. * marks the point of attachment. X1 = COc1ccc(CC[C@@H](N[*:1])c2cccc(OCC(=O)[*:2])c2)cc1OC; X2 = CN(CCC=CC(=O)OCC(C)(C)C(=O)C(=O)[*:2])[*:1]; NMeY = CN[C@@H](Cc1ccc(O)cc1)C(=O)O; Pip = O=C(O)[C@@H]1CCCCN1; Morpholide = C1CN(*)CCO1; CO = O=C([*:1])[*:2]; Sar = CNCC(=O)O

Columns and labels:
H929 = experiment: Cell proliferation assay (Prolif.), H929; format: cell-based; conditions: H929 cells; scored relative to DMSO control
[1] = system: Rat Renal Ischemia-Reperfusion model; experiment: Rat Renal Ischemia-Reperfusion model; format: in vivo, Sprague Dawley Rats; conditions: treated 30 min prior to right nephrectomy and left renal clamping; 24 hours of reperfusion; 1593 at 12 or 4 mg/kg, 1594 at 4 mg/kg
Protocol: Briefly, Sprague Dawley Rats were treated test compound 30 min prior to a right nephrectomy and with underwent clamping of the left renal clamping for 15 mins. After 24 hours of reperfusion, blood was collected to measure biomarkers for kidney damage and the kidney was removed for histology. […] SHAM indicates an animal group with right nephrectomy without ischemic injury. VE indicates vehicle. DPA indicates dipyridamole administered in a dosage of 10 mg/kg. Compound 1593 was administered at a high dosage (12 mg/kg) or a low dosage (4 mg/kg). Compound 1594 was administered at 4 mg/kg.

[2] = Nucleoside uptake, single concentration assay (Rel.Uptake); cell line indicated in each table; format: cell-based; conditions: nucleoside uptake, single concentration assay, 293T cells, response relative to DMSO
Procedure, shortened: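 3H-thymidine uptake measured in the indicated cell lines (e.g. 293T) grown in complete media. IC50 scored relative to DMSO control as Low >600 nM, Medium 300-600 nM, High <300 nM; Rel.Uptake single-concentration response vs DMSO scored Low >0.6, Medium 0.3-0.6, High <0.3.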

293T = experiment: Nucleoside uptake assay (3H-Thymidine), IC50 scored relative to DMSO control; format: cell-based; conditions: 293T cells
Protocol: Nucleoside Uptake Assay (uptake). Nuceloside uptake assays were performed with using 3H-Thymidine as described in Guo et al. (2018) Nat. Chem. 11:254-63. Specific cell lines are indicated in each assay and cultured in complete growth media. Activity is scored according to the IC50 values relative to DMSO control. “Low” indicates an IC50 greater than 600 nM, “Medium” indicates an IC50 between 300 nM and 600 nM “High” indicates an IC50 less than 300 nM. “Rel.Uptake” refers to uptake activity characterization relative to a single concentration assay. “Low” indicates a response greater than 0.6 times the activity relative to DMSO, “Medium” indicates a response between 0.6 and 0.3 times the activity relative to DMSO, “High” indicates a response less than 0.3 times the activity relative to DMSO.

Row | SMILES | Prolif. H929 (H929) | efficacy in Rat Renal Ischemia-Reperfusion model [1] | Rel. Uptake, 293T [2] | Uptake, 293T (293T; 3H-Thymidine uptake, IC50 class relative to DMSO control) | Uptake, 293T (293T; nucleoside uptake)
1 | COc1ccc(CC[C@H]2NC(=O)[C@@H]3CCCCN3C(=O)C(=O)C(C)(C)COC(=O)C=CCCN(C)C(=O)[C@@H](Cc3ccccc3)NC(=O)CN(C)C(=O)[C@@H](Cc3ccccc3)NC(=O)[C@H](Cc3ccc(OC(=O)N4CCOCC4)cc3)N(C)C(=O)COc3cccc2c3)cc1OC [Compound 877] (cyclo([NMeY]([CO-Morpholide])[dF][Sar][dF][X2][Pip][X1])) | low |  |  |  | 
2 | COc1ccc(CC[C@H]2OC(=O)[C@@H]3CCCCN3C(=O)C(=O)C(C)(C)COC(=O)/C=C/CCN(C)C(=O)[C@H](CC(C)C)N(C)C(=O)[C@H]3CCCN3C(=O)[C@H](Cc3ccc(OCC(=O)O)cc3)NC(=O)[C@H](c3ccccc3)NC(=O)CCC(=O)Nc3cccc2c3)cc1OC [Compound 1593] |  | efficacious | High (“High” indicates a response less than 0.3 times the activity relative to DMSO) |  | 
3 | COc1ccc(CC[C@H]2NC(=O)[C@@H]3CCCCN3C(=O)C(=O)C(C)(C)COC(=O)C=CCCN(C)C(=O)[C@H](CC(C)C)N(C)C(=O)[C@H]3CCCN3C(=O)[C@H](Cc3ccccc3)N(C)C(=O)C(c3ccccc3)NC(=O)CCC(=O)Nc3cccc2c3)cc1OC (stereo partly drawn) [Compound 1557] |  |  | high | high | 
4 | COc1ccc(CC[C@H]2OC(=O)[C@@H]3CCCCN3C(=O)C(=O)C(C)(C)COC(=O)/C=C/CCN(C)C(=O)[C@H](CC(C)C)N(C)C(=O)[C@H]3CCCN3C(=O)[C@H](Cc3ccccc3)NC(=O)[C@H](c3ccccc3)NC(=O)CCC(=O)Nc3cccc2c3)cc1OC [Compound 1594] |  | efficacious | Low (“Low” indicates a response greater than 0.6 times the activity relative to DMSO) |  | 
5 | COc1ccc(CC[C@H]2OC(=O)[C@@H]3CCCCN3C(=O)C(=O)C(C)(C)COC(=O)C=CCCN(C)C(=O)[C@H](CC(C)C)N(C)C(=O)[C@H]3CCCN3C(=O)[C@H](Cc3ccc(C(=O)Nc4ccccc4)cc3)NC(=O)[C@H](c3ccccc3)NC(=O)CCC(=O)Nc3cccc2c3)cc1OC [Compound 1559] |  |  | medium |  | medium
